From PMC8753592, “Long-acting capsid inhibitor protects macaques from repeat SHIV challenges” (Nature, 2021)
Values joined by “and” are separate entries in the source; they are usually repeats but may differ in a detail not shown here. Equal entries are not always repeated. Where two headings read alike, the source gives them in different places.

Legend:
[1] = test system: SHIV-SF162P3; assay: microbe, parasite or virus in culture; type: cell-based, SHIV (in rhesus macaque, Macaca mulatta, PBMCs); conditions: for % Virus Production, replicates n1–n3: experiments 1–7; for % Virus Production, MEAN: per experiment 1–7
Protocol: Freshly isolated PBMCs from three male rhesus macaque (M. mulatta) donors of Indian origin (HumanCells Biosciences) were cultured in RPMI-1640 cell culture medium (Life Technologies) supplemented with 10% heat-inactivated FBS (Hyclone), 2 mM glutamine and 100 U ml^−1 penicillin plus 100 μg ml^−1 streptomycin (complete RPMI). Before their use in the antiviral assays, rhesus PBMCs from three independent donors were pooled and activated at a density of 3 × 10^6 cells per ml for 72 h at 37 °C by the addition of 1 μg ml^–1 phytohemagglutinin (PHA, Sigma-Aldrich) and 50 U ml^−1 recombinant human interleukin-2 (IL-2) (Roche Diagnostics).
PHA/IL-2-stimulated rhesus PBMCs were infected in bulk culture with SHIV-SF162P3 at a concentration of 130 pg of p27 equivalent per million PBMCs. The cells were maintained in suspension by gently rocking the cultures mixed with virus inoculum for 3 h at 37 °C. The cells were then pelleted by centrifugation at 500g for 5 min, washed twice with complete RPMI to remove any unadsorbed virus and seeded into 96-well plates at a cell density of 2 × 10^5 cells per well in 100 μl. […] The cultures were incubated in a 5% CO2 incubator at 37 °C for 7 days. Cell-free supernatants derived from the PBMC cultures were harvested 7 days after infection, the amount of SHIV present was quantified using an SIV p27 antigen-capture ELISA assay (5436, Advanced Bioscience Laboratories) performed according to the manufacturer’s protocol, and the data were acquired using SoftMax Pro 6.3.1 software (Molecular Devices).

[2] = Pilot pharmacokinetic study, single subcutaneous administration; conditions: individual animals
Protocol: All study protocols were reviewed and approved by the Covance Laboratories Institutional Animal Care and Use Committee (IACUC).
Rhesus plasma samples were stored frozen at −80 °C. For analysis, the samples were thawed, and a 50-µl aliquot of each sample was treated with 200 µl acetonitrile containing a generic internal small-molecule standard. After precipitation of the protein component, a 100-µl aliquot of the supernatant was transferred to a clean 96-well plate and was mixed with 200 µl water. A 20-μl aliquot of the above solution was then injected into a Q-Exactive high-resolution mass spectrometer (Thermo Scientific) with electrospray ionization in positive mode. Quantification was performed with a Thermo Scientific Xcalibur 4.0.27.19 using accurate masses (<5 parts per million mass error; [M + H]^+ of 958.1853 for GC-CA1 and 758.3270 for the internal standard, respectively)[22],[23]. […] Pharmacokinetic parameters, including the area under the plasma concentration–time curve from time 0 to the last quantifiable time point (AUClast), the area under the plasma concentration–time curve from time 0 to infinity (AUCinf), the maximum concentration (Cmax), the time to reach the observed peak plasma concentration (tmax) and the terminal half-life (t1/2), were determined by non-compartmental analysis using Phoenix WinNonlin 6.4 build 8.1.0.3530 software (Pharsight).

For `CC(C)(C#Cc1ccc(-c2ccc(Cl)c3c(NS(=O)(=O)C4CC4)nn(CC(F)F)c23)c([C@H](Cc2cc(F)cc(F)c2)NC(=O)Cn2nc(C(F)F)c3c2C(F)(F)[C@@H]2C[C@H]32)n1)S(C)(=O)=O` [GS-CA1], the “% Virus Production, replicates n1–n3” value ([1]; 0.011 nM) was 122% and 104% and 99% and 93% and 127% and 160% and 82% and 121% and 88% and 87% and 68%, the “% Virus Production, MEAN” value ([1]; 0.011 nM) was 108% and 126% and 97% and 83% and 121% and 68% and the “% Virus Production, replicates n1–n3” value ([1]; 0.034 nM) was 106% and 78% and 72% and 136% and 114% and 75% and 116% and 105% and 181% and 64% and 89% and 82% and 53% and 93%. For the same molecule, the “% Virus Production, replicates n1–n3” value ([1]; 0.103 nM) was 127% and 124% and 79% and 73% and 103% and 118% and 130% and 152% and 105% and 82% and 99% and 121% and 76% and 71%, the “% Virus Production, MEAN” value ([1]; 0.103 nM) was 110% and 85% and 133% and 95% and 89% and 99% and 67% and the “% Virus Production, replicates n1–n3” value ([1]; 0.309 nM) was 75% and 74% and 102% and 149% and 120% and 72% and 78% and 94% and 103% and 109% and 66%. For the same molecule, the “% Virus Production, replicates n1–n3” value ([1]; 0.926 nM) was 65% and 37% and 36% and 39% and 31% and 20% and 16% and 18% and 23% and 70% and 14% and 22%, the “% Virus Production, replicates n1–n3” value ([1]; 2.778 nM) was 0.408% and 2% and 2.34% and 1.77% and 1.55% and 0.489% and 2.2% and 1.37% and 0.76% and 0.799% and the “% Virus Production, MEAN” value ([1]; 2.778 nM) was 1.61% and 1.79% and 1.35% and 1.16% and 2.6% and 1.28% and 0.0528%. The “% Virus Production, replicates n1–n3” value ([1]; 8.333 nM) was 1.76% and 1% and 0.517% and 0.425% and 0.705% and 0.145% and 0.0164% and 0.262% and 1.4% and 0.22% and 0.682% and 0.142%, the “% Virus Production, MEAN” value ([1]; 8.333 nM) was 1.08% and 0.425% and 0.559% and 0.348% and 1.87% and 0.078% and 0.398% and the “% Virus Production, replicates n1–n3” value ([1]; 25.000 nM) was -0.0465% and -0.0193% and 0.798% and -0.276% and 0.164% and 0.276% and 1% and 0.434% and -0.106% and 0.12% and 0.292% and 0.064% and 0.0863%. For the same molecule, the “% Virus Production, MEAN” value ([1]; 25.000 nM) was 0.244% and 0.0545% and 0.436% and 0.159% and -0.387% and 0.675% and 0.293%, the “Rhesus PBMC paEC95” value ([1]; EC95 × rhesus plasma shift) was 30.2 nM and 30.2 ± 2.5 nM and 30 nM and the EC50 ([1]; Simian immunodeficiency virus, PBMC, in Macaca mulatta, 168 h, read-out: EC50, rhesus PBMCs, SHIV-SF162P3, mean of 7 assays, SIV p27 ELISA day 7 post-infection) was 0.72 nM. For the same molecule, the EC50 ([1]; Simian immunodeficiency virus, PBMC, in Macaca mulatta, 168 h, read-out: SHIV162P3-rhPBMC-EC50, individual experiments, single experiments n1–n7, SIV p27 ELISA day 7) was 0.66 nM, the “Rhesus PBMC EC95” value ([1]; calculated from SHIV EC50 and Hill slope: EC50 × (95/5)^1/n) was 1.91 nM and 1.91 ± 0.16 nM and 1.9 nM and the EC50 ([1]; read-out: SHIV162P3-rhPBMC-EC50, individual experiments, single experiments n1–n7, SIV p27 ELISA day 7) was 0.71 nM and 0.777 nM and 0.868 nM and 0.535 nM and 0.74 nM (2×) and 0.661 nM and 0.78 nM and 0.714 nM and 0.87 nM and 0.54 nM. The “Plasma GS-CA1 level” value ([2]; 100 mg/kg s.c., 0.006 weeks post dose, unit not given (Fig. 1b in nM)) was 41.2 and 93.2, the “Plasma GS-CA1 level” value ([2]; 100 mg/kg s.c., 0.018 weeks post dose, unit not given) was 240 and the “Plasma GS-CA1 level” value ([2]; 100 mg/kg s.c., 0.047 weeks post dose, unit not given) was 588. The “Plasma GS-CA1 level” value ([2]; 100 mg/kg s.c., 0.14 weeks post dose, unit not given) was 2054, the “Plasma GS-CA1 level” value ([2]; 100 mg/kg s.c., 0.29 weeks post dose, unit not given) was 2247 and the “Plasma GS-CA1 level” value ([2]; 100 mg/kg s.c., 0.43 weeks post dose, unit not given) was 1217. The “Plasma GS-CA1 level” value ([2]; 100 mg/kg s.c., 0.57 weeks post dose, unit not given) was 649, the “Plasma GS-CA1 level” value ([2]; 100 mg/kg s.c., 1 week post dose, unit not given) was 448 and the “Plasma GS-CA1 level” value ([2]; 100 mg/kg s.c., 2 weeks post dose, unit not given) was 254. For the same molecule, the “Plasma GS-CA1 level” value ([2]; 100 mg/kg s.c., 3 weeks post dose, unit not given) was 125, the “Plasma GS-CA1 level” value ([2]; 100 mg/kg s.c., 4 weeks post dose, unit not given) was 115 and the “Plasma GS-CA1 level” value ([2]; 100 mg/kg s.c., 5 weeks post dose, unit not given) was 92.7. The “Plasma GS-CA1 level” value ([2]; 100 mg/kg s.c., 6 weeks post dose, unit not given) was 65.1, the “Plasma GS-CA1 level” value ([2]; 100 mg/kg s.c., 8 weeks post dose, unit not given) was 43.2 and the “Plasma GS-CA1 level” value ([2]; 100 mg/kg s.c., 10 weeks post dose, unit not given) was 23.6. For the same molecule, the “Plasma GS-CA1 level” value ([2]; 100 mg/kg s.c., 12 weeks post dose, unit not given) was 11.5, the “Plasma GS-CA1 level” value ([2]; 100 mg/kg s.c., 14 weeks post dose, unit not given) was 15.5 and 6.3 and the “Plasma GS-CA1 level” value ([2]; 100 mg/kg s.c., 16 weeks post dose, unit not given) was 10.4 and 5.1. The “Plasma GS-CA1 level” value ([2]; 100 mg/kg s.c., 18 weeks post dose, unit not given) was 10.7 and 2.4, the “Plasma GS-CA1 level” value ([2]; 300 mg/kg s.c., 0.006 weeks post dose, unit not given (Fig. 1b in nM)) was 74.8 and 53.9 and the “Plasma GS-CA1 level” value ([2]; 300 mg/kg s.c., 0.018 weeks post dose, unit not given) was 137 and 203 and 314. The “Plasma GS-CA1 level” value ([2]; 300 mg/kg s.c., 0.047 weeks post dose, unit not given) was 205 and 325 and 1054, the “Plasma GS-CA1 level” value ([2]; 300 mg/kg s.c., 0.14 weeks post dose, unit not given) was 3062 and 1232 and 2737 and the “Plasma GS-CA1 level” value ([2]; 300 mg/kg s.c., 0.29 weeks post dose, unit not given) was 3422 and 1597 and 1786. For the same molecule, the “Plasma GS-CA1 level” value ([2]; 300 mg/kg s.c., 0.43 weeks post dose, unit not given) was 1984 and 1345, the “Plasma GS-CA1 level” value ([2]; 300 mg/kg s.c., 0.57 weeks post dose, unit not given) was 1342 and 1428 and the “Plasma GS-CA1 level” value ([2]; 300 mg/kg s.c., 1 week post dose, unit not given) was 938 and 936. The “Plasma GS-CA1 level” value ([2]; 300 mg/kg s.c., 2 weeks post dose, unit not given) was 1435 and 680 and 798, the “Plasma GS-CA1 level” value ([2]; 300 mg/kg s.c., 3 weeks post dose, unit not given) was 467 and 939 and 816 and the “Plasma GS-CA1 level” value ([2]; 300 mg/kg s.c., 4 weeks post dose, unit not given) was 461 and 659. For the same molecule, the “Plasma GS-CA1 level” value ([2]; 300 mg/kg s.c., 5 weeks post dose, unit not given) was 226 and 377 and 512, the “Plasma GS-CA1 level” value ([2]; 300 mg/kg s.c., 6 weeks post dose, unit not given) was 291 and 348 and 602 and the “Plasma GS-CA1 level” value ([2]; 300 mg/kg s.c., 8 weeks post dose, unit not given) was 243 and 396.
